{"source": "patent US11287431B2", "about": "“Method of testing for pulmonary hypertension” (TOHOKU UNIVERSITY, priority 2014, dated 2022)", "system": "pulmonary artery smooth muscle cells (PASMC) in idiopathic pulmonary arterial hypertension (IPAH) patients", "experiment": "Selenoprotein P protein secretion by IPAH-PASMC at hypoxia, western blot of whole cell lysates and conditioned medium", "format": "cell-based, human", "conditions": "IPAH-PASMC cultured 24 hours at hypoxia (oxygen concentration: 2%) in the presence of fasudil (hydroxyfasudil concentration: 10 μM), versus normoxia and hypoxia alone", "description": "The response of pulmonary artery smooth muscle cells (PASMC) in idiopathic pulmonary arterial hypertension (IPAH) patients (hereinafter also referred to as IPAH-PASMC) to hypoxia stimulation was observed.\nPrimary cell lines were established from pulmonary vascular smooth muscle in idiopathic pulmonary arterial hypertension patients, in accordance with the following document: Ogawa A, Nakamura K, Matsubara H, Fujio H, Ikeda T, Kobayashi K, Miyazaki I, Asanuma M, Miyaji K, Miura D, Kusano K F, Date H, Ohe T, Circulation, 2005; 112: 1806-1812. The pulmonary vascular smooth muscle in idiopathic pulmonary arterial hypertension patients was isolated from pulmonary arteries having an outer diameter of 1.5 mm or less.\nIPAH-PASMC was cultured in D-MEM medium supplemented by 10% FBS (fetal bovine serum) at 37° C. under constant temperature and constant humidity conditions at 95% air and 5% CO2 in accordance with a usual method. In this test, passage 4 to 7 cells at a confluence of 70 to 80% were used. […]\nAfter culturing, whole cell lysates and a conditioned medium were prepared for each sample, and selenoprotein P protein was detected by western blot analysis.", "data": [{"smiles": "O=S(=O)(c1cccc2cnccc12)N1CCCNCC1", "note": "[fasudil]", "values": [{"measurement": "extracellular secretion of selenoprotein P protein (into the medium)", "result": "enhanced secretion of selenoprotein P protein was not observed"}]}]}
